The source of these data is patent publication US7601716B2, “Pyridopyrazines and derivatives thereof as ALK and c-Met inhibitors” (Cephalon, Inc., priority 2006, dated 2009).

The target in data set [1] is T1, c-Met (cytoplasmic domain) (Homo sapiens, UniProt P08581).
T1 construct: Reactions were initiated with 30 ng/mL c-Met (cytoplasmic domain, Invitrogen Corporation #PV3143); purchased Invitrogen Corporation PV3143
In words: c-Met Kinase Assay (ELISA/TRF, PLC-γ substrate). Type of data set: biochemical. The conditions noted are these: 3 μM ATP (Km level); read-out: c-Met Kinase Inhibition (IC50). Summed up:
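Readout is TRF of europium anti-phosphotyrosine (PT66) bound to GST–PLC-γ substrate coated at 10 μg/mL, after a 15 min, 37 °C reaction started with 30 ng/mL c-Met cytoplasmic domain. Percent inhibition plotted against log compound concentration and fitted (variable slope) for IC50.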

The target of data set [2] is baculovirus-expressed ALK (Homo sapiens, UniProt Q9UM73). In words: ALK Kinase Assay (ELISA/TRF, PLC-γ substrate). Further: 1 µM ATP (Km level). Type of data set: biochemical. The conditions noted are these: read-out: ALK Kinase Inhibition (IC50). The essentials:
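Read-out: TRF of europium-labeled anti-phosphotyrosine antibody bound to phosphorylated GST–PLC-γ coated at 10 μg/mL. Kinase step used 30 ng/ml ALK, 37° C, 15 minutes. IC50 values fitted by nonlinear sigmoidal dose-response (variable slope).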

Data set [3] deals with T2, c-Met (phospho-c-Met) in HT29 cells (Homo sapiens, UniProt P08581).
T2 construct: endogenous in cells; host or cells: HT29, A549 (HGF-stimulated), GTL-16
As to the kind of experiment: c-Met Cellular Activity/Autophosphorylation Assay, HT29 cells. Type of data set: cell-based. The conditions noted are these: for inhibition at 1 µM: HT-29, 1 μM compound, read-out: c-Met autophosphorylation inhibition score, HT29 Cells (1 μM); for inhibition at 3 µM: HT-29, 3 μM compound, read-out: c-Met autophosphorylation inhibition score, HT29 Cells (3 μM). The essentials:
(§1)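 HT29 and GTL-16 cells serum-starved 1 h in 0.05% BSA with compound (1-10 μM); A549 serum-starved overnight, compound-treated 1 h, then HGF 50 ng/mL for 15 min. Lysates Western blotted; phospho-c-Met and total c-Met quantified by infrared fluorescence imaging.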

The target in data set [4] is T3, c-Met (phospho-c-Met) in A549 cells (Homo sapiens, UniProt P08581).
T3 construct: endogenous in cells; host or cells: HT29, A549 (HGF-stimulated), GTL-16
In words: c-Met Cellular Activity/Autophosphorylation Assay, A549 cells (HGF stimulated). The conditions noted are these: 50 ng/mL HGF; for inhibition at 1 µM: 1 μM compound, read-out: c-Met autophosphorylation inhibition score, A549 Cells (1 μM); for inhibition at 3 µM: 3 μM compound, read-out: c-Met autophosphorylation inhibition score, A549 Cells (3 μM). In kind it is cell-based. The essentials: as §1

In a further data set the target is T4, NPM-ALK (Homo sapiens, UniProt Q9UM73).
T4 construct: a fusion protein consisting of nucleophosmin (NMP) and the intracellular domain of ALK; the other entry of the earlier key: NPM1 (P06748, Nucleophosmin)
As to the kind of experiment: ALK Cellular Assay (phospho-NPM-ALK immunoblot / ALK tyrosine phosphorylation ELISA). In kind it is cell-based. As for the experimental part: Immunoblotting of phospho-NPM-ALK and total NPM-ALK from cell lysates was carried out according to the protocols provided by the antibody suppliers. In brief, after treatment of Example compounds, cells were lysed in Frak lysis buffer [10 mM Tris, pH 7.5, 1% Triton X-100, 50 mM sodium chloride, 20 mM sodium fluoride, 2 mM sodium pyrophosphate, 0.1% BSA, plus freshly prepared 1 mM activated sodium vanadate, 1 mM dithiothreitol (#165680050, ARCOS Organics, Geel, Belgium), and 1 mM PMSF (#837091, Boehringer Mannheim Biochemicals, Indianapolis, Ind.), protease inhibitors cocktail III (#539134-1Set, Calbiochem, 1:100 dilution)]. After brief sonication, the lysates were cleared by centrifugation, mixed with sample buffer and subjected to SDS-PAGE. Following transfer to membranes, the membranes were blotted with either rabbit phospho-NPM-ALK(Y664) (Cat^#3341) or ALK antibody (Cat^#3342) from Cell Signaling Technology (Beverly, Mass.), and then the HRP-conjugated goat anti-rabbit antibodies (Santa Cruz, Calif.) after washed in TBS/0.2% Tween-20. The protein bands were visualized with ECL Western Blotting detection reagents (RPN2106, Amersham Biosciences, Buckinghamshire, UK) and quantitated with gel-pro analyzer 3.1 software.
To measure ALK tyrosine phosphorylation in cells with an ELISA assay, fluoronunc plates (Cat^#437796, Nalge Nunc, Rochester, N.Y.) were pre-coated with goat anti-mouse IgG, and incubated with the capture mouse ALK antibody (Cat^#35-4300, Zymed, Seattle, Wash.) diluted 1:1000 in Superblock (Pierce, Rockford, Ill.). Following blocking, cell lysates were added to plates and incubated overnight at 4° C. Plates were incubated with the detecting antibody, anti-phospho-ALK (Y664) (Cell Signaling Technology), diluted at 1:2000, followed by incubation with goat anti-rabbit-IgG alkaline phosphatase to amplify the detection. Wells were exposed to the fluorogenic substrate 4-MeUP (#3368-04-5, Calbiochem) and the signal quantified using a CytoFluor® (series 4000) Fluorescence Multi-Well Plate Reader (Applied Biosystems, Foster City, Calif.).

Data set [5] concerns the target T5, c-Met (phospho-c-Met) in GTL-16 cells (Homo sapiens, UniProt P08581).
T5 construct: endogenous in cells; host or cells: HT29, A549 (HGF-stimulated), GTL-16
As to the kind of experiment: c-Met Cellular Activity/Autophosphorylation Assay, GTL-16 cells. In kind it is cell-based. The conditions noted are these: for inhibition at 1 µM: 1 μM compound, read-out: c-Met autophosphorylation inhibition score, GTL-16 Cells (1 μM); for inhibition at 3 µM: 3 μM compound, read-out: c-Met autophosphorylation inhibition score, GTL-16 Cells (3 μM). As for the experimental part: HT29 and GTL-16 cells were serum starved for one hour in media containing 0.05% BSA and varying concentrations of Example compounds (1-10 μM). A549 cells were serum starved overnight in media containing 0.05% BSA then treated for one hour with Example compounds followed by a 15 minute stimulation with 50 ng/mL HGF (Peprotech, Rocky Hill, N.J.), respectively. Samples were resolved by electrophoresis on a 3-8% Tris-Acetate gel (40 ma/gel) and then transferred to a nitrocellulose membrane. Membranes were blocked for one hour at room temperature in Odyssey Blocking Buffer (Licor #927-40000) diluted 1:1 with 1×TBS. Membranes were then co-incubated overnight at 4° C. with primary antibodies [total Met (Cell Signaling, #3127) and Phospho-Met (Biosource, #44-888G) 1:1000 each in Odyssey Blocking Buffer diluted 1:1 with 1×TBS-T 0.05%]. The next day, membranes were washed and co-incubated with secondary antibodies [Goat anti mouse IRDye800 (Rockland, #610-132-121) and Goat anti rabbit Alexa fluor 700 (Molecular Probes, #A21038) 1:10,000] in Odyssey Blocking Buffer diluted 1:1 with 1×TBS-T 0.05% for one hour at room temperature protected from light. Blots were then washed and read on the Odyssey Infrared Imager. Total c-Met signal was visualized at 800 nm detection and phospho-c-Met signal was visualized at 700 nm detection.

T1 sequence (P08581 956-1390 limits assumed): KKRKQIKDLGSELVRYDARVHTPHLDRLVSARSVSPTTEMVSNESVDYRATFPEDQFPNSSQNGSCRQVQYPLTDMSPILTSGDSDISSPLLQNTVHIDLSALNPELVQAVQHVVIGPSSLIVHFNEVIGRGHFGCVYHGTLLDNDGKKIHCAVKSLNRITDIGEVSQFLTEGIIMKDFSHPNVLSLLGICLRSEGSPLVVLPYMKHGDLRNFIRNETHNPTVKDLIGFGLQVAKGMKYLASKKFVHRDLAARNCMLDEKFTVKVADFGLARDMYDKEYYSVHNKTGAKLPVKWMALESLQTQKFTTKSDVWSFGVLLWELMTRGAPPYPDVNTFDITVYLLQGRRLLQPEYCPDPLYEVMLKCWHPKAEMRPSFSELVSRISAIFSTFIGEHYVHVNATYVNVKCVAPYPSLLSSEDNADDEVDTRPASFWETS
T2 sequence (P08581 25-1390): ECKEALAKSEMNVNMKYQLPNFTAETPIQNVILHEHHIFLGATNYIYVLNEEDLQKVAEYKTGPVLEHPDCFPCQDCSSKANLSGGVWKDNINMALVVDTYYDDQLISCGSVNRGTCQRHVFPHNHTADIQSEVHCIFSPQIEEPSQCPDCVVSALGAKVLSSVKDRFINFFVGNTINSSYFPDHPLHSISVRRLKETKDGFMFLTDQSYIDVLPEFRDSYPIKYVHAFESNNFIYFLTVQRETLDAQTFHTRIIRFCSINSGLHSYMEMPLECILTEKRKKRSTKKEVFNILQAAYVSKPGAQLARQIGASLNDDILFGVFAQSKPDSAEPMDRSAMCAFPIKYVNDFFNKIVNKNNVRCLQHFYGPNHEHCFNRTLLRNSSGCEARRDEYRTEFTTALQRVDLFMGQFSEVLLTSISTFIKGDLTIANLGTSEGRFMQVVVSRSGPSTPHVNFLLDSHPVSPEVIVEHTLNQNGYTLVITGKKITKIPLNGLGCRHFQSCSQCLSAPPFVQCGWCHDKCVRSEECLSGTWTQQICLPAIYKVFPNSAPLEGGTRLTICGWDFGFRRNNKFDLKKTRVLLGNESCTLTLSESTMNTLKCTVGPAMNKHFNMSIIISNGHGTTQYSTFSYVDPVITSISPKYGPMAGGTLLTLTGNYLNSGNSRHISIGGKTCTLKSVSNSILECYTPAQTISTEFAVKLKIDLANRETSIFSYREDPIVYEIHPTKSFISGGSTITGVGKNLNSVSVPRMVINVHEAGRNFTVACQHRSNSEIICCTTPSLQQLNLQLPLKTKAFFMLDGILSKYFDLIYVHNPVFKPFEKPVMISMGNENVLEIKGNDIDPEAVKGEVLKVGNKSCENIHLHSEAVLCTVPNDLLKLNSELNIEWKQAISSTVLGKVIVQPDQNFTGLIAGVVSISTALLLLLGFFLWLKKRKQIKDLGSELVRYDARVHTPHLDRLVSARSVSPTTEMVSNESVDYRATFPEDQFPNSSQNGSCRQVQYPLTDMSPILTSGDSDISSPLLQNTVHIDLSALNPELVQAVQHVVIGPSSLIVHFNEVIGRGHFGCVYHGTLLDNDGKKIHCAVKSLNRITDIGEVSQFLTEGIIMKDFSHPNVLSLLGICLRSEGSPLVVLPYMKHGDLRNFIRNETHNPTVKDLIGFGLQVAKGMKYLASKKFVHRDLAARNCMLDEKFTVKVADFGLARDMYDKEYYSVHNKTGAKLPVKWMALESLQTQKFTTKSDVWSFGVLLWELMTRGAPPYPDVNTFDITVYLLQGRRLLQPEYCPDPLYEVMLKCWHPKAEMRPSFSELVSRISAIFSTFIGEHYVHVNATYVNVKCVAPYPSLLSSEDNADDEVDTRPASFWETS
T5 sequence (P08581 25-1390): as above
T3 sequence (P08581 25-1390): as above

For the molecule `CN1CCN(c2ccc(-c3cnc4c(c3)N(Cc3cc(F)ccc3F)CCN4)cn2)CC1` [Example 69, 1-(2,5-Difluorobenzyl)-7-[6-(4-methylpiperazin-1-yl)pyridin-3-yl]-1,2,3,4-tetrahydropyrido[2,3-b]pyrazine], the melting point was 192 to 193 °C. In addition, the IC50 in data set [1] lay in the range of 1 to 10 µM. Moreover, the IC50 in data set [2] is below 0.1 µM. Further, in data set [3], the inhibition at 1 µM is 0 to 25% and the inhibition at 3 µM was in the range of 0 to 25%. Further, in data set [4], the inhibition at 1 µM is 0 to 25% and the inhibition at 3 µM is 0 to 25%. In addition, at NPM-ALK, the IC50 fell in the range of 0.751 to 1 µM.
On to `O=C(c1ccc(-c2cnc3c(c2)N(Cc2c(F)ccc(F)c2Cl)CCN3)cc1)N1CCC(N2CCCC2)CC1` [Example 99, {4-[1-(2-Chloro-3,6-difluorobenzyl)-1,2,3,4-tetrahydropyrido[2,3-b]pyrazin-7-yl]phenyl}-(4-(pyrrolidin-1-yl)piperidin-1-yl)methanone], for which the melting point fell in the range of 93 to 95 °C. The IC50 in data set [1] is 0.1 to 1 µM. The IC50 in data set [2] was below 0.1 µM. Further, in data set [3], the inhibition at 1 µM lay in the range of 0 to 25% and the inhibition at 3 µM lay in the range of 0 to 25%. In data set [4], the inhibition at 1 µM lay within 0 to 25% and the inhibition at 3 µM lay in the range of 0 to 25%. At NPM-ALK, this molecule displayed an IC50 of at most 0.25 µM.
`O=C1CNc2ncc(-c3ccc(C(=O)N4CCC[C@H]4CN4CCCC4)cc3)cc2N1Cc1cc(Cl)ccc1Cl` [Example 157, S-1-(2,5-Dichlorobenzyl)-7-[4-(2-[(pyrrolidin-1-yl)methyl]pyrrolidine-1-carbonyl)phenyl]-3,4-dihydro-1H-pyrido[2,3-b]pyrazin-2-one] registered a melting point of 180 °C. For the same molecule, the half-maximal inhibitory concentration (IC50) in data set [1] lay in the range of 0.1 to 1 µM. For the same molecule, in data set [2], the IC50 is below 0.1 µM. Also, in data set [3], the inhibition at 1 µM lay in the range of 0 to 25% and the inhibition at 3 µM was in the range of 26 to 50%. Further, in data set [4], the inhibition at 1 µM was 0 to 25% and the inhibition at 3 µM was 0 to 25%. Besides, the IC50 against NPM-ALK lay within 0.251 to 0.5 µM.
Consider `O=C(c1ccc(-c2cnc3c(c2)N(Cc2cc(Cl)ccc2Cl)CCN3)cc1)N1CCC(N2CCCC2)CC1` [Example 160, {4-[1-(2,5-Dichlorobenzyl)-1,2,3,4-tetrahydropyrido[2,3-b]pyrazin-7-yl]phenyl}-(4-(pyrrolidin-1-yl)piperidin-1-yl)methanone], for which the IC50 is 0.1 to 1 µM in data set [1], below 0.1 µM in data set [2] and at most 0.25 µM on NPM-ALK. The inhibition at 1 µM in data set [3] lay in the range of 26 to 50%; in data set [4], 0 to 25%. In addition, the inhibition at 3 µM in data set [3] lay in the range of 26 to 50%; in data set [4], 0 to 25%.
In the case of `O=C(c1ccc(-c2cnc3c(c2)N(Cc2c(Cl)cccc2Cl)CCN3)cc1)N1CCC(N2CCCC2)CC1` [Example 163, {4-[1-(2,6-Dichlorobenzyl)-1,2,3,4-tetrahydropyrido[2,3-b]pyrazin-7-yl]phenyl}-(4-(pyrrolidin-1-yl)piperidin-1-yl)methanone], the IC50 is 0.1 to 1 µM in data set [1], below 0.1 µM in data set [2] and 0.751 to 1 µM at NPM-ALK. In addition, the inhibition at 1 µM in data set [3] and in data set [4] was 0 to 25% each time. Besides, the inhibition at 3 µM in data set [3] lay within 26 to 50%; in data set [4], 0 to 25%.
For the molecule `O=C(c1ccc(-c2cnc3c(c2)N(Cc2c(Cl)cccc2Cl)CCN3)cc1)N1CCC[C@H]1CN1CCCC1` [Example 164, {4-[1-(2,6-Dichlorobenzyl)-1,2,3,4-tetrahydropyrido[2,3-b]pyrazin-7-yl]phenyl}-{2-[(pyrrolidin-1-yl)methyl]pyrrolidin-1-yl}methanone], the IC50 was 1 to 10 µM in data set [1], below 0.1 µM in data set [2] and 0.251 to 0.5 µM against NPM-ALK. The inhibition at 1 µM in data set [3] and in data set [4] was 0 to 25% in each case. Further, the inhibition at 3 µM in data set [3] and in data set [4] was 0 to 25% throughout.
For `CC(c1c(F)ccc(F)c1Cl)N1CCNc2ncc(-c3ccc(N4CCN(C)CC4)nc3)cc21` (stereo not shown) [Example 177, 1-[1-(2-Chloro-3,6-difluorophenyl)ethyl]-7-[6-(4-methylpiperazin-1-yl)pyridin-3-yl]-1,2,3,4-tetrahydropyrido[2,3-b]pyrazine], the half-inhibitory concentration (IC50) in data set [1] is 1 to 10 µM; in data set [2], below 0.1 µM; against NPM-ALK, 0.251 to 0.5 µM. In addition, the inhibition at 1 µM in data set [3] lay in the range of 26 to 50%; in data set [4], 0 to 25%. Also, the inhibition at 3 µM was in the range of 26 to 50% in data set [3] and 0 to 25% in data set [4].
On to `CN1CCN(c2ccc(-c3cnc4c(c3)N(Cc3c(F)ccc(F)c3Cl)CCN4)cn2)CC1` [Example 185, 1-(2-Chloro-3,6-difluorobenzyl)-7-[6-(4-methylpiperazin-1-yl)pyridin-3-yl]-1,2,3,4-tetrahydropyrido[2,3-b]pyrazine], for which, in data set [3], the inhibition at 1 µM lay in the range of 51 to 75% and the inhibition at 3 µM was in the range of 76 to 100%. Besides, in data set [5], the inhibition at 1 µM lay in the range of 0 to 25% and the inhibition at 3 µM was in the range of 0 to 25%.
For the molecule `Fc1ccc(F)c(CN2CCNc3ncc(-c4ccnc(N5CCOCC5)c4)cc32)c1Cl` [Example 186, 1-(2-Chloro-3,6-difluorobenzyl)-7-(2-morpholin-4-yl-pyridin-4-yl)-1,2,3,4-tetrahydropyrido[2,3-b]pyrazine], the melting point was 157 °C. In addition, the IC50 in data set [1] was in the range of 1 to 10 µM. In addition, in data set [2], the IC50 was below 0.1 µM. Further, in data set [3], the inhibition at 1 µM fell in the range of 26 to 50% and the inhibition at 3 µM lay in the range of 26 to 50%. In data set [5], the inhibition at 1 µM lay within 0 to 25% and the inhibition at 3 µM was in the range of 0 to 25%. This molecule also displayed an IC50 on NPM-ALK of at most 0.25 µM.
